Data reported in patent publication US7569605B2, “Methods of treating central nervous system disorders with a low dose combination of escitalopram and bupropion” (Forest Laboratories Holdings Limited, priority 2005, dated 2009).
“And” between values parts separate entries of the source, which are not always exact repeats. Identical values can stand only once. Marks after values point to notes of the source that are not given here.

Test system: patients with major depressive disorder (MDD)
Experiment: double-blind fixed dose comparison in major depressive disorder: efficacy (MADRS, HAMD, CGI, HAMA, QOL)
Format: in vivo, human
Set-up: key to QOL: LS mean change from baseline to endpoint (LOCF): aggregated 5-point item scores; higher = greater enjoyment/satisfaction; HAMD17: LS mean change from baseline to endpoint (LOCF): scale not given here
Conditions: escitalopram 4 mg, bupropion XL 150 mg, 8 weeks; for CGI % response: CGI-I response = 1 or 2; for HAMD17 % remission: HAMD17 remission <=7; for HAMD24 % response: HAMD24 response >=50% improvement; for MADRS % remission: MADRS remission <=12; for MADRS % response: MADRS response >=50% improvement; for CGI-I: LS mean (LOCF) / CGI-S: LS mean change from baseline to endpoint (LOCF) / HAMA: LS mean change from baseline to endpoint (LOCF) / HAMD17: LS mean change from baseline to endpoint (LOCF) / HAMD24 2° parameter, validated: LS mean change from baseline to endpoint (LOCF) / HAMD cognit disturb: LS mean change from baseline to endpoint (LOCF) / HAMD psychomotor: LS mean change from baseline to endpoint (LOCF) / MADRS 1° parameter, validated: LS mean change from baseline to endpoint (LOCF) / QOL: LS mean change from baseline to endpoint (LOCF): vs placebo
Procedure: This clinical study is conducted as a double-blind, randomized, fixed-dose, multicenter, parallel-group study in outpatients as shown in the Figure below: […] Approximately 135 patients are randomized to each of four treatment groups (placebo, escitalopram oxalate 4 mg, bupropion hydrochloride 150 mg, or escitalopram oxalate 4 mg/bupropion hydrochloride 150 mg), for a total of […]. A randomized, double-blind, fixed-dose, multicenter, parallel-group study is conducted in outpatients with MDD. […] Assignment to a treatment group is according to a computer-generated randomization schedule. […] The following primary efficacy assessments are performed at patient visits: […] The following secondary efficacy assessments are performed at patient visits: […] The following additional efficacy assessments are performed at patient visits: […] This scale rates the severity of the patient's current state of mental illness based on the investigator's clinical opinion with regard to a patient population with MDD. The patient is rated on a scale of 1 to 7 with 1 being normal and 7 being a patient who was among the most extremely ill. […] Based on the investigator's clinical opinion, this scale rates the total improvement or worsening in the patient's mental illness from his/her baseline assessment, regardless of whether or not the investigator considered it due to drug treatment. The patient is rated on a scale from 1 to 7 with 1 being very much improved and 7 being very much worse. […] Each item is scored on a 5 point scale with 0 reflecting no symptoms and 4 reflecting symptoms of maximum severity. […] Five-point item scores are aggregated, with higher scores indicative of greater enjoyment or satisfaction in each domain. Dosing: For the single-blind lead-in period, patients are supplied with placebo capsules. For the double-blind period, identical appearing capsules are supplied which contain placebo, escitalopram 4 mg, or bupropion extended-release 150 mg. […] All study medication is administered as a single daily dose throughout the study, preferably at the same time each evening starting on the day the medication is dispensed to the patient. Dosing is subsequently be switched to morning, if preferred. […] Patients are instructed to return all unused medication at each study visit. […] Patients are instructed to take two capsules daily as a single dose beginning on the day study medication is dispensed. […] Patients are assigned the lowest randomization number available at the site. Patients are instructed to take two capsules daily as a single dose beginning on the day study medication is dispensed. In accordance with their assigned treatment group, patients receive placebo, 4 mg escitalopram, 150 mg bupropion, or 4 mg escitalopram and 150 mg bupropion per day. […] Patients are instructed to continue taking two capsules daily as a single dose. In accordance with their assigned treatment group, patients receive placebo, 4 mg escitalopram, 150 bupropion, or 4 mg escitalopram and 150 mg bupropion per day. Efficacy: All efficacy analyses are based on the Intent-to-Treat (ITT) Population. […] All efficacy analyses are performed using both the Last Observation Carried Forward (LOCF) and the Observed Cases (OC) approach. In these analyses, the last observed value before a post-baseline missing value are carried forward to impute the missing value. […] For OC analyses, only observed values are used. […] The primary analysis is performed using the LOCF approach. Three primary comparisons between the escitalopram/bupropion combination group relative to each of the three other groups (placebo, escitalopram, or bupropion) are performed using an ANCOVA model with the treatment group and center as factors and the baseline MADRS score as a covariate. […] The analyses are carried out using a similar statistical model as used for the primary efficacy parameter. […]

| SMILES | CGI % response | HAMD17 % remission | HAMD24 % response | MADRS % remission | MADRS % response | CGI-I: LS mean (LOCF) | CGI-S: LS mean change from baseline to endpoint (LOCF) | HAMA: LS mean change from baseline to endpoint (LOCF) | HAMD17: LS mean change from baseline to endpoint (LOCF) | HAMD24 2° parameter, validated: LS mean change from baseline to endpoint (LOCF) | HAMD cognit disturb: LS mean change from baseline to endpoint (LOCF) | HAMD psychomotor: LS mean change from baseline to endpoint (LOCF) | MADRS 1° parameter, validated: LS mean change from baseline to endpoint (LOCF) | QOL: LS mean change from baseline to endpoint (LOCF) |
| --- | --- | --- | --- | --- | --- | --- | --- | --- | --- | --- | --- | --- | --- | --- |
| CC(NC(C)(C)C)C(=O)c1cccc(Cl)c1 (racemic) [bupropion, (±)-1-(3-chlorophenyl)-2-[(1,1-dimethylethyl)amino]-1-propanone] | 46.6% and 46.62% | 29.3% and 29.32% | 42.9% and 42.86% | 37.6% and 37.59% | 43.6% and 43.61% | −0.11 | −0.27 | −1.31 | −0.75 | −1.10 | −0.21 | −0.33 | −1.08 | 1.97 |
| CN(C)CCC[C@@]1(c2ccc(F)cc2)OCc2cc(C#N)ccc21 [escitalopram, 1-[3-(dimethyl-amino)propyl]-1-(p-fluorophenyl)-5-phthalancarbonitrile] | 56.5% and 56.49* % | 29.8% and 29.77% | 46.6% and 46.56* % | 35.9% and 35.88% | 47.3% and 47.33* % | 0.33* | −0.32* | −1.91* | −0.75 | −1.15 | −0.29 | −0.16 | −2.51* | 2.25 |
